Literature values, collected in patent US20030228635A1, “Cell proliferation assays and methods” (Renovar, Inc., priority 2002, published 2003).

Test system: cells
Details: cells labelled with CFSE; Lyons and Parish 1994

**Q.** For “carboxy-fluorescein diacetate, succinimidyl ester [CFSE]”, which “effect on cellular function” value is on record?
**A.** The value was “does not adversely affect cellular function”.
